According to paper PMC11413964, “Discovery of 1,3-disubstituted prop-2-en-1-one derivatives as inhibitors of neutrophilic inflammation via modulation of MAPK and Akt pathways” (Journal of Enzyme Inhibition and Medicinal Chemistry, 2024):

Key:
[1] = system: fMLF/cytochalasin B (CB)-activated human neutrophils; assay: Superoxide anion generation (ferricytochrome c reduction) in fMLF/CB-activated human neutrophils; format: cell-based; settings: Neutrophil, fMLF/CB stimulation, mean ± SEM (n = 3–5); for inhibition at 10 µM: 10 μM compound
Protocol: (§1) The study involving neutrophils was approved by the Institutional Review Board of Chang Gung Memorial Hospital under IRB number: 201902217A3 and was conducted in accordance with the principles of the Declaration of Helsinki. Healthy volunteers aged 20–35 years provided signed informed consents for blood collection. Isolation of neutrophils was done using dextran sedimentation, Ficoll-Hypaque density gradient centrifugation, and hypotonic haemolysis. For the anti-inflammatory studies, neutrophils were suspended in Hank’s balanced salt solution (HBSS) containing 1 mM Ca^2+ at a pH of 7.4[72].
The reduction of ferricytochrome c was utilised to measure the production of SO anions in activated human neutrophils. […] The neutrophils were then stimulated with fMLF (0.1 μM) and CB (1 μg/mL) for 13 min. […] LY294002 was used as a positive control.

[2] = system: fMLF/cytochalasin B (CB)-activated human neutrophils; assay: Elastase release in fMLF/CB-activated human neutrophils; format: cell-based; settings: 10 μM compound; cytochalasin B only
ERK = assay: Immunoblotting of ERK phosphorylation in fMLF-activated neutrophils; format: cell-based, human; settings: 10 μM for 5 min, then fMLF 0.1 μM for 30 s
Protocol: (§2) Human neutrophils (2.5 × 10^7 cells/mL) were first subjected to DMSO (0.1%, serving as control) or experimental compounds at 37 °C for 5 min. Following this, cells were stimulated with fMLF (0.1 μM) for 30 s. […] Primary antibodies used included those for p38 (1:8000), phospho-p38 (1:3000), JNK (1:3000), phospho-JNK (1:3000), Akt (1:5000), phospho-Akt (Ser-473) (1:2000), ERK (1:8000), phospho-ERK (1:8000), and HRP-linked anti-rabbit IgG, to measure total and phosphorylated forms of MAPK and Akt proteins. The quantitative measurements for all samples were adjusted to correspond with the levels of the total protein present.

p38 MAPK = assay: Immunoblotting of p38 MAPK phosphorylation in fMLF-activated neutrophils; format: cell-based, human; settings: 10 μM for 5 min, then fMLF 0.1 μM for 30 s
Protocol: as §2

Akt = assay: Immunoblotting of Akt phosphorylation in fMLF-activated neutrophils; format: cell-based, human; settings: 10 μM for 5 min, then fMLF 0.1 μM for 30 s
Protocol: as §2

JNK = assay: Immunoblotting of JNK phosphorylation in fMLF-activated neutrophils; format: cell-based, human; settings: 10 μM for 5 min, then fMLF 0.1 μM for 30 s
Protocol: as §2

[3] = system: fMLF/cytochalasin B (CB)-activated human neutrophils; assay: Elastase release in fMLF/CB-activated human neutrophils; format: cell-based; settings: fMLF/CB stimulation, mean ± SEM (n = 3–5); for inhibition at 10 µM: 10 μM compound
Protocol: as §1
Neutrophils were subsequently stimulated with fMLF (0.1 μM) and CB (0.5 μg/mL) for 13 min. […] LY294002 was used as a positive control.

[4] = system: fMLF/cytochalasin B (CB)-activated human neutrophils; assay: Superoxide anion generation (ferricytochrome c reduction) in fMLF/CB-activated human neutrophils; format: cell-based; settings: 10 μM compound; cytochalasin B only

| Compound | inhibition at 10 µM [1] [%] | melting point [°C] | Induction of elastase release [2] | IC50 [1] [nM] | Effect on ERK phosphorylation (ERK) | Effect on p38 phosphorylation (p38 MAPK) | Effect on Akt phosphorylation (Akt) | Effect on JNK phosphorylation (JNK) | inhibition at 10 µM ([3]; Homo sapiens, Neutrophil) [%] | IC50 ([3]; Homo sapiens, Neutrophil) [nM] | IC50 [3] [nM] | Induction of superoxide anion production [4] |
| --- | --- | --- | --- | --- | --- | --- | --- | --- | --- | --- | --- | --- |
| CC(C)(C)C(=O)/C=C/c1ccc([N+](=O)[O-])cc1 [Compound 6, (E)-4,4-Dimethyl-1-(4-nitrophenyl)pent-1-en-3-one] | 23.3 ± 2.3 | 125 to 126 | induced elastase release | – | – | – | – | – | – | – | – | – |
| COc1cccc(C(=O)/C=C/c2ccc([N+](=O)[O-])cc2)c1 [Compound 6a, (E)-1-(3-Methoxyphenyl)-3-(4-nitrophenyl)prop-2-en-1-one] | 99.69 ± 0.18 | 132.3 to 133.3 | – | 1230 ± 270 | did not alter the phosphorylation | did not alter the phosphorylation | significantly suppressed phosphorylation | significantly suppressed phosphorylation | 84.5 ± 5.73 | 1370 | 2220 ± 120 | – |
| O=C(/C=C/c1ccc(Cl)cc1)c1ccc(-c2ccccc2)cc1 [Compound 11a, (E)-1-([1,1′-Biphenyl]-4-yl)-3-(4-chlorophenyl)prop-2-en-1-one] | – | – | – | – | – | – | – | – | – | – | – | an inducer rather than an inhibitor |
| CC(C)(C)Oc1ccc(/C=C/C(=O)c2ccc[nH]2)cc1 [Compound 13, (E)-3-(4-(tert-Butoxy)phenyl)-1-(1H-pyrrol-2-yl)prop-2-en-1-one] | – | 116.5 to 118.5 | induced elastase release | – | – | – | – | – | – | – | – | induced also SO anion generation |
| CC(C)(C)C(=O)/C=C/c1ccc(Cl)cc1Cl [Compound 15, (E)-1-(2,4-Dichlorophenyl)-4,4-dimethylpent-1-en-3-one] | 43 ± 2.78 | 103 to 104 | induced elastase release | – | – | – | – | – | – | – | – | – |
| CC(C)(C)C(=O)/C=C/c1ccc2ccccc2c1 [Compound 26, (E)-4,4-Dimethyl-1-(naphthalen-2-yl)pent-1-en-3-one] | 10.6 ± 3.34 | 117 to 119 | induced elastase release | – | – | – | – | – | – | – | – | – |
| COc1ccc(C(=O)/C=C/c2cc(F)cc(F)c2)cc1OC [Compound 26a, (E)-3-(3,5-Difluorophenyl)-1-(3,4-dimethoxyphenyl)prop-2-en-1-one] | 92.4 ± 2.19 | 132.8 to 134.8 | – | 1560 ± 270 | markedly diminished phosphorylation | markedly diminished phosphorylation | did not affect | markedly diminished phosphorylation | 20.2 ± 3.19 | – | – | – |
| CC(C)(C)C(=O)/C=C/c1ccc(-c2ccccc2)cc1 [Compound 29, (E)-1-([1,1′-Biphenyl]-4-yl)-4,4-dimethylpent-1-en-3-one] | 2.23 ± 0.94 | 128 to 130 | induced elastase release | – | – | – | – | – | – | – | – | – |
